Where a SMILES comes first, the peptide text is derived from it. The star is where a group is joined. Myristoyl = CCCCCCCCCCCCCC(=O)*
What was measured:
MDA-MB-231 cells = type: cell-based, human; settings: 50 μM peptide, 48 hours, n = 1
Text: (§1) Non-adherent cells were removed during the washing steps.

[1] = system: CD44^hiCD24^lo CSCs in MDA-MB-231 cells; assay: FACS analysis of CD44^hiCD24^lo cancer stem cells in MDA-MB-231 cells treated with P1 analogues; type: cell-based, human; settings: 50 μM peptide, 48 hours; for CD44^hiCD24^lo CSCs (%) / COI, Live Single CD44^hiCD24^lo CSCs (Cell Count): n = 1; for Average Inhibition of CSCs (%) / CD44^hiCD24^lo CSCs (%) Repeat 1 / CD44^hiCD24^lo CSCs (%) Repeat 2 / CD44^hiCD24^lo CSCs (%) Repeat 3: n = 3
Description: Analogues of P1 (Table 6) were designed and synthesized in accordance with the procedure of Example 5. The ability of these analogues to inhibit cancer stem cells was determined using FACS analysis on MDA-MB-231 cells, which constitutively contain approximately 90% CD44^hiCD24^lo cancer stem cells, treated with the peptides.
as §1
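Throughout, for COI, Live Single Cells (Cell Count): live means Hoechst-negative events among single cells.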

SMILES	COI (Cell Count) (MDA-MB-231 cells)	COI, Live Single Cells (Cell Count) (MDA-MB-231 cells)	COI, Single (Cell Count) (MDA-MB-231 cells)	Total Cell Count (MDA-MB-231 cells)	Inhibition of CSCs (%) Repeat 1 [1] [%]	Inhibition of CSCs (%) Repeat 2 [1] [%]	Inhibition of CSCs (%) Repeat 3 [1] [%]	CD44^hiCD24^lo CSCs (%) [1] [%]	COI, Live Single CD44^hiCD24^lo CSCs (Cell Count) [1]	Average Inhibition of CSCs (%) [1] [%]	CD44^hiCD24^lo CSCs (%) Repeat 1 [1] [%]	CD44^hiCD24^lo CSCs (%) Repeat 2 [1] [%]	CD44^hiCD24^lo CSCs (%) Repeat 3 [1] [%]
CCCCCCCCCCCCCC(=O)N[C@@H](CC(C)C)C(=O)N[C@H](C(=O)N[C@@H](Cc1ccccc1)C(=O)N[C@H](C(=O)N[C@@H](Cc1ccccc1)C(=O)N[C@@H](CCCNC(=N)N)C(=O)N[C@@H](CC(C)C)C(=O)N[C@@H](CCCNC(=N)N)C(=O)N[C@@H](CCCCN)C(=O)NCC(=O)N[C@@H](CCCNC(=N)N)C(=O)N[C@@H](CCSC)C(=O)N[C@@H](CCSC)C(=O)N[C@@H](CC(=O)O)C(=O)N[C@H](C(=O)N[C@@H](CCCCN)C(=O)N[C@@H](Cc1ccc(O)cc1)C(N)=O)C(C)C)[C@@H](C)CC)[C@@H](C)O [Peptide 2853847, Myristoyl-LTFIFRLRKGRMMDVKY-NH2] (Myristoyl-LTFIFRLRKGRMMDVKY-NH2)	5345	4218	4268	10000	25.89	27.27	26.71	62.59	2640	26.62	66.42	65.25	65.76
CCCCCCCCCCCCCC(=O)N[C@H](C(=O)N[C@@H](Cc1ccccc1)C(=O)N[C@H](C(=O)N[C@@H](Cc1ccccc1)C(=O)N[C@@H](CCCNC(=N)N)C(=O)N[C@@H](CC(C)C)C(=O)N[C@@H](CCCNC(=N)N)C(=O)N[C@@H](CCCCN)C(=O)NCC(=O)N[C@@H](CCCNC(=N)N)C(=O)N[C@@H](CCSC)C(=O)N[C@@H](CCSC)C(=O)N[C@@H](CC(=O)O)C(=O)N[C@H](C(=O)N[C@@H](C)C(=O)N[C@@H](CCCCN)C(N)=O)C(C)C)[C@@H](C)CC)[C@@H](C)O [Peptide 2815316, Myristoyl-TFIFRLRKGRMMDVAK-NH2] (Myristoyl-TFIFRLRKGRMMDVAK-NH2)	22	4	20	10777	40.88	45.01	45.00	50.00	2	43.63	52.99	49.33	49.35
CCCCCCCCCCCCCC(=O)N[C@@H](CC(C)C)C(=O)N[C@H](C(=O)N[C@@H](Cc1ccccc1)C(=O)N[C@H](C(=O)N[C@@H](Cc1ccccc1)C(=O)N[C@@H](CCCNC(=N)N)C(=O)N[C@@H](CCCCN)C(=O)N[C@@H](CCCNC(=N)N)C(=O)N[C@@H](CCCCN)C(=O)NCC(=O)N[C@@H](CCCNC(=N)N)C(=O)N[C@@H](CCSC)C(=O)N[C@@H](CCSC)C(=O)N[C@@H](CC(=O)O)C(=O)N[C@H](C(=O)N[C@@H](CCCCN)C(=O)N[C@@H](CCCCN)C(N)=O)C(C)C)[C@@H](C)CC)[C@@H](C)O [Peptide 2853822, Myristoyl-LTFIFRKRKGRMMDVKK-NH2] (Myristoyl-LTFIFRKRKGRMMDVKK-NH2)	768	648	657	3204	81.93	81.80	81.03	4.78	31	81.59	16.19	16.33	17.02
CCCCCCCCCCCCCC(=O)N[C@@H](CC(C)C)C(=O)N[C@H](C(=O)N[C@@H](Cc1ccccc1)C(=O)N[C@H](C(=O)N[C@@H](Cc1ccccc1)C(=O)N[C@H](C(=O)N[C@@H](CC(C)C)C(=O)N[C@@H](CCCNC(=N)N)C(=O)N[C@@H](CCCCN)C(=O)NCC(=O)N[C@@H](CCCNC(=N)N)C(=O)N[C@@H](CCSC)C(=O)N[C@@H](CCSC)C(=O)N[C@@H](CC(=O)O)C(=O)N[C@H](C(=O)N[C@@H](CCCCN)C(=O)N[C@@H](CCCCN)C(N)=O)C(C)C)C(C)C)[C@@H](C)CC)[C@@H](C)O [Peptide 2853818, Myristoyl-LTFIFVLRKGRMMDVKK-NH2] (Myristoyl-LTFIFVLRKGRMMDVKK-NH2)	33	20	25	275	88.46	97.94	93.25	25.00	5	93.21	10.34	1.85	6.06
CCCCCCCCCCCCCC(=O)N[C@@H](CC(C)C)C(=O)N[C@H](C(=O)N[C@@H](Cc1ccccc1)C(=O)N[C@H](C(=O)N[C@@H](Cc1ccccc1)C(=O)N[C@@H](CCCNC(=N)N)C(=O)N[C@@H](CC(C)C)C(=O)N[C@@H](CCCNC(=N)N)C(=O)N[C@@H](CCCCN)C(=O)NCC(=O)N[C@@H](CCCNC(=N)N)C(=O)N[C@@H](CCC(=O)O)C(=O)N[C@@H](CCSC)C(=O)N[C@@H](CC(=O)O)C(=O)N[C@H](C(=O)N[C@@H](CCCCN)C(=O)N[C@@H](CCCCN)C(N)=O)C(C)C)[C@@H](C)CC)[C@@H](C)O [Peptide 2853832, Myristoyl-LTFIFRLRKGREMDVKK-NH2] (Myristoyl-LTFIFRLRKGREMDVKK-NH2)	674	444	515	2068	93.78	94.44	94.90	2.48	11	94.37	5.58	4.99	4.58
CCCCCCCCCCCCCC(=O)N[C@@H](CC(C)C)C(=O)N[C@H](C(=O)N[C@@H](Cc1ccccc1)C(=O)N[C@H](C(=O)N[C@@H](Cc1ccc(O)cc1)C(=O)N[C@@H](CCCNC(=N)N)C(=O)N[C@@H](CC(C)C)C(=O)N[C@@H](CCCNC(=N)N)C(=O)N[C@@H](CCCCN)C(=O)NCC(=O)N[C@@H](CCCNC(=N)N)C(=O)N[C@@H](CCSC)C(=O)N[C@@H](CCSC)C(=O)N[C@@H](CC(=O)O)C(=O)N[C@H](C(=O)N[C@@H](CCCCN)C(=O)N[C@@H](CCCCN)C(N)=O)C(C)C)[C@@H](C)CC)[C@@H](C)O [Peptide 2853814, Myristoyl-LTFIYRLRKGRMMDVKK-NH2] (Myristoyl-LTFIYRLRKGRMMDVKK-NH2)	437	368	387	999	73.80	76.59	77.85	13.86	51	76.08	23.48	21.00	19.88
CCCCCCCCCCCCCC(=O)N[C@@H](CC(C)C)C(=O)N[C@H](C(=O)N[C@H](C(=O)N[C@H](C(=O)N[C@@H](Cc1ccccc1)C(=O)N[C@@H](CCCNC(=N)N)C(=O)N[C@@H](CC(C)C)C(=O)N[C@@H](CCCNC(=N)N)C(=O)N[C@@H](CCCCN)C(=O)NCC(=O)N[C@@H](CCCNC(=N)N)C(=O)N[C@@H](CCSC)C(=O)N[C@@H](CCSC)C(=O)N[C@@H](CC(=O)O)C(=O)N[C@H](C(=O)N[C@@H](CCCCN)C(=O)N[C@@H](CCCCN)C(N)=O)C(C)C)[C@@H](C)CC)C(C)C)[C@@H](C)O [Peptide 2853809, Myristoyl-LTVIFRLRKGRMMDVKK-NH2] (Myristoyl-LTVIFRLRKGRMMDVKK-NH2)	1736	1508	1560	3548	49.62	53.48	60.55	35.61	537	54.55	45.15	41.73	35.40
CCCCCCCCCCCCCC(=O)N[C@@H](CC(C)C)C(=O)N[C@H](C(=O)N[C@@H](Cc1ccccc1)C(=O)N[C@H](C(=O)N[C@@H](Cc1ccccc1)C(=O)N[C@@H](CCCNC(=N)N)C(=O)N[C@@H](CC(C)C)C(=O)N[C@@H](CCCNC(=N)N)C(=O)N[C@@H](CCCCN)C(=O)NCC(=O)N[C@@H](CCCNC(=N)N)C(=O)N[C@@H](CCSC)C(=O)N[C@@H](CCSC)C(=O)N[C@@H](CC(=O)O)C(=O)N[C@@H](CCC(=O)O)C(=O)N[C@@H](CCCCN)C(=O)N[C@@H](CCCCN)C(N)=O)[C@@H](C)CC)[C@@H](C)O [Peptide 2853838, Myristoyl-LTFIFRLRKGRMMDEKK-NH2] (Myristoyl-LTFIFRLRKGRMMDEKK-NH2)	408	305	333	888	86.55	81.44	86.40	10.16	31	84.80	12.05	16.65	12.20
